Results published in ChEMBL document CHEMBL1201862, “PubChem BioAssay data set” (2004).
Activity calls are given as the source filed them.

Experiments:
BJ [1] = assay: BJ-TERT fibroblast viability loss – cell-based, RAS-independent, luminescence, dose response (AID 1933); format: functional; conditions: Homo sapiens
BJ [2] = assay: cells; format: functional, cell-based; conditions: Homo sapiens
BJ [3] = assay: growth inhibition of engineered Ras-driven BJ cells – cell-based, alamar blue fluorescence, cherrypicked samples, dose response (AID 2631); format: functional; conditions: Homo sapiens;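 note: confirmatory dose-response assay in RAS-dependent BJ fibroblasts engineered with TERT, LT and ST, with cytotoxicity read by fluorescence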
BJ [4] = assay: BJ-TERT-LT-ST fibroblast viability loss – cell-based, RAS-independent, luminescence, dose response (AID 1935); format: functional; conditions: Homo sapiens;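 note: BJ fibroblasts immortalized with TERT plus LT and ST oncogenes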
[5] = DRD fibroblast viability loss – cell-based, non-viral oncogenic, luminescence, dose response (AID 1934); format: functional; conditions: Homo sapiens
Caspase-3 [6] = biological target: T1, Caspase-3 (Homo sapiens, UniProt P42574); format: functional
T1 sequence (P42574 whole entry): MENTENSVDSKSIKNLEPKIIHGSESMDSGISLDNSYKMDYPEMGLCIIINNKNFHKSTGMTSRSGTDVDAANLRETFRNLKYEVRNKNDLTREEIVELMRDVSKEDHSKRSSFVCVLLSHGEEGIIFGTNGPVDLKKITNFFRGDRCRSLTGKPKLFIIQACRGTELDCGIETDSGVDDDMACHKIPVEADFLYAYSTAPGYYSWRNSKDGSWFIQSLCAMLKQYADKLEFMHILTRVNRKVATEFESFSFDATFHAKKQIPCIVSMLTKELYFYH

[7] = biological target: T2, Sentrin-specific protease 8 (Homo sapiens, UniProt Q96LD8); format: functional;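 note: luminescence read-out of SENP8 inhibition, dose-response confirmation following an ultra-high-throughput screen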
T2 sequence (Q96LD8 whole entry): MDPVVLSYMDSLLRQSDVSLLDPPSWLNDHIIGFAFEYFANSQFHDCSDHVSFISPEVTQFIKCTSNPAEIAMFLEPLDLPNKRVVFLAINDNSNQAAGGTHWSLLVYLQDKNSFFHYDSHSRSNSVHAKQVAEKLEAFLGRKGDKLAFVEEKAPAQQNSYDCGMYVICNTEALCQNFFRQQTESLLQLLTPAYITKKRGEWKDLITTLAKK

[8] = biological target: T3, Sentrin-specific protease 7 (Homo sapiens, UniProt Q9BQF6); format: functional;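 note: Luminescence-based dose-response confirmation of ultra-high-throughput screening hits, measuring inhibition of SENP7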
T3 sequence (Q9BQF6 whole entry): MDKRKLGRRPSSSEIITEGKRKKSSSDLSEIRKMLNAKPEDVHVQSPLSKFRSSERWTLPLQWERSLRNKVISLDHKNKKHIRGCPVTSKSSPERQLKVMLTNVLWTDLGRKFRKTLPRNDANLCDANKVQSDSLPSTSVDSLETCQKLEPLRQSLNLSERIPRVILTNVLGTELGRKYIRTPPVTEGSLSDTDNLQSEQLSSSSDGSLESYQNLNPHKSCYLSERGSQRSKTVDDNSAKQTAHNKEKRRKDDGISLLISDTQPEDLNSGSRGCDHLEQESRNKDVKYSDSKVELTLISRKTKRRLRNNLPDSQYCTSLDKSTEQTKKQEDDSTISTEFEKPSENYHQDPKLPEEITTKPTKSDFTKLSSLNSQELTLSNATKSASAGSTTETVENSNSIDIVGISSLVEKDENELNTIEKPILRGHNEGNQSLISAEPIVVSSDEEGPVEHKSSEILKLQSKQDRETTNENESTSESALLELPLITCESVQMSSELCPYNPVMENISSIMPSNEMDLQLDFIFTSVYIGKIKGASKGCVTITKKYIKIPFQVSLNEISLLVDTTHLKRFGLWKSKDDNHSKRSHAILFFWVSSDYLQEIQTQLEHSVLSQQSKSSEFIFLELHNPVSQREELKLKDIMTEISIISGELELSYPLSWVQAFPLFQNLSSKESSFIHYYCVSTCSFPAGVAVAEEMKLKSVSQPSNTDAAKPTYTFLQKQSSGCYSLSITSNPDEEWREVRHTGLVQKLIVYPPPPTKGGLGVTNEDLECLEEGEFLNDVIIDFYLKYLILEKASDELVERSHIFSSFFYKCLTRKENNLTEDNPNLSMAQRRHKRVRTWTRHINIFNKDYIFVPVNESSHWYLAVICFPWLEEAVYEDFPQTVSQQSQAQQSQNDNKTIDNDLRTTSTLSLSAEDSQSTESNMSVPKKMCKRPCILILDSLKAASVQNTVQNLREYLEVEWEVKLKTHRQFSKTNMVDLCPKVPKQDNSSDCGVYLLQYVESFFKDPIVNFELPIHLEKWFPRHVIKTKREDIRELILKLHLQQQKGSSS

[9] = biological target: T4, Sentrin-specific protease 6 (Homo sapiens, UniProt Q9GZR1); format: functional
T4 sequence (Q9GZR1 whole entry): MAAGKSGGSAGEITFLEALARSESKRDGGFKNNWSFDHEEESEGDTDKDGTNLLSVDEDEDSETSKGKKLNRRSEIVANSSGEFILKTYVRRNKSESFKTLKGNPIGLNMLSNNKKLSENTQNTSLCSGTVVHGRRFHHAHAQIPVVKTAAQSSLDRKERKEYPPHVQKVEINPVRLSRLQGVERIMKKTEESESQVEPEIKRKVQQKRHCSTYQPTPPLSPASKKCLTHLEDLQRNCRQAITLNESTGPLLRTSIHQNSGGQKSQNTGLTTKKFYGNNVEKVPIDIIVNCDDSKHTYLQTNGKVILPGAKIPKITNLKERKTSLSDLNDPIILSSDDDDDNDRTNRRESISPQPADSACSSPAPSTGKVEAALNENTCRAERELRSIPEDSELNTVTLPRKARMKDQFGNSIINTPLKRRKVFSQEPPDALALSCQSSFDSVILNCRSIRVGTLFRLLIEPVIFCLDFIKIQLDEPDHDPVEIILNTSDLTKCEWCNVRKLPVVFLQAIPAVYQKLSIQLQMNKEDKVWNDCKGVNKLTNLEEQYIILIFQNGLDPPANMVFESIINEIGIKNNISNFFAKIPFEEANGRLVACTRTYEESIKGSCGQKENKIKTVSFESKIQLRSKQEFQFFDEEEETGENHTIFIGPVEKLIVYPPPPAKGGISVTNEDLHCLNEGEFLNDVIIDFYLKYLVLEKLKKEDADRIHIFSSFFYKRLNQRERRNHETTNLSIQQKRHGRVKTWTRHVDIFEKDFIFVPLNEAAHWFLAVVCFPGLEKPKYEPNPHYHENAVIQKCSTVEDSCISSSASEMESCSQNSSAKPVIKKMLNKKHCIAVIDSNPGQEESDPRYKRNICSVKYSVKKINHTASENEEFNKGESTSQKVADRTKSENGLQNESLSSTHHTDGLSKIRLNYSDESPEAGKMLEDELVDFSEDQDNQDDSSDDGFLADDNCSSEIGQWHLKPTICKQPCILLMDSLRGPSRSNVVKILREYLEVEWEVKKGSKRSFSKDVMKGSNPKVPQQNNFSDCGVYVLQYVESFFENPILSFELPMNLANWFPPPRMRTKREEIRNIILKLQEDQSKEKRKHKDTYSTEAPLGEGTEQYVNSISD

HEK293 [10] = assay: membrane integrity loss in HEK cells – cell-based, fluorescence, cytotoxicity control for IDE activator project, dose response (AID 588440); format: functional; conditions: Homo sapiens;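 note: cytotoxicity by LDH release measuring loss of membrane integrity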
Insulin-degrading enzyme [11] = biological target: T5, Insulin-degrading enzyme (Homo sapiens, UniProt P14735); assay: cellular IDE activation of Abeta substrate cleavage – fluorescence polarization, HEK cells, dose response (AID 588439); format: functional, cell-based
T5 sequence (P14735 whole entry): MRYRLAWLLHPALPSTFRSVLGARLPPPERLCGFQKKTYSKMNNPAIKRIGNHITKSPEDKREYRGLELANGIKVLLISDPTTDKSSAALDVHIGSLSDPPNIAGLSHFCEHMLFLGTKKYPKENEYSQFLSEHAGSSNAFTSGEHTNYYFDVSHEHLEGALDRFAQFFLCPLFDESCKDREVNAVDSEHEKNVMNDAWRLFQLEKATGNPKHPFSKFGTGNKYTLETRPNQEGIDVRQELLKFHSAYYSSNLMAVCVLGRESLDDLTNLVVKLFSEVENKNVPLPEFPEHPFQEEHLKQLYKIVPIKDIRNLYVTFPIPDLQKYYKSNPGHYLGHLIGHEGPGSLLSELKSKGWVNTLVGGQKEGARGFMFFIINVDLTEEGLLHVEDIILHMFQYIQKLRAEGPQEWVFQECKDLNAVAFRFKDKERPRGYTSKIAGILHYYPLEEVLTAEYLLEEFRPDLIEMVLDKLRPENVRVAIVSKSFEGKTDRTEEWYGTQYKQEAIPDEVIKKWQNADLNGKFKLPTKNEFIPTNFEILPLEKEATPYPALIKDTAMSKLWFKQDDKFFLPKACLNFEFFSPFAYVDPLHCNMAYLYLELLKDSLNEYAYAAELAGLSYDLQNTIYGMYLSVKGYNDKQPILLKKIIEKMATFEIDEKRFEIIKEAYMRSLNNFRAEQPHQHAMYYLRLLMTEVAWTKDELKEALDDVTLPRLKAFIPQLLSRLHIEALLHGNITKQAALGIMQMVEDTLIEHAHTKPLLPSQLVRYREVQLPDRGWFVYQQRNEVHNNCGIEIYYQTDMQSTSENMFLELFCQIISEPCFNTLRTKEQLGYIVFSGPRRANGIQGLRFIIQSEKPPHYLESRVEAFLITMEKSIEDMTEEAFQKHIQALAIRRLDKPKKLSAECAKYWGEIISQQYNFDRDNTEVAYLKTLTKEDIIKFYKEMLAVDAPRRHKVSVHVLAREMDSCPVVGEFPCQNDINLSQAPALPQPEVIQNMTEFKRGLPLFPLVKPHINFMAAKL

HEK293 [12] = assay: optical interference in Abeta FP readout, dose response, artefact control for IDE activator project, biochemical, fluorescence polarization (AID 588442); format: functional, cell-based; conditions: Homo sapiens
Insulin-degrading enzyme [13] = biological target: T5, Insulin-degrading enzyme; assay: recombinant IDE activation, cell-free – biochemical, fluorescence polarization, counter-screen for IDE activator project, dose response (AID 588681)
[14] = biological target: T4, Sentrin-specific protease 6; assay: SAR Analysis of small molecule inhibitors of Sentrin-specific protease 6 (SENP6) using a Luminescent assay. [Related pubchem assays (depositor defined):AID2582, AID2599]; format: functional
[15] = luciferase reporter signal suppression in cells – H4 neuroglioma cells, luminescence, dose response (AID 1990); format: functional, cell-based
Nonstructural protein 1 = Nonstructural protein 1 (Influenza A virus, UniProt Q194T2); format: functional, Influenza A virus (A/California/07/2009(H1N1))
Chain of Nonstructural protein 1 (Q194T2 whole entry): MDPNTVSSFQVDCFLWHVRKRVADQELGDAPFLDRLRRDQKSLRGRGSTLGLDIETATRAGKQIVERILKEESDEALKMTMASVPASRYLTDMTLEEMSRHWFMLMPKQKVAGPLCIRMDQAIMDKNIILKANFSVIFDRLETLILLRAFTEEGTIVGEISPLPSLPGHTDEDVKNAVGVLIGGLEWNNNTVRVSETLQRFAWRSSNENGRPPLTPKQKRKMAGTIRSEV

[16] = tested on: Streptococcus sp. 'group A'; assay: Streptococcus pyogenes SK(-)GAS viability under kanamycin – luminescence, BacTiterGlo, confirmation, counter-screen for streptokinase expression inhibitor project, dose response (AID 1900); format: functional, organism-based
Caspase-3 [17] = biological target: T1, Caspase-3; assay: SAR Analysis of small molecule inhibitors of Sentrin-specific proteases (SENPs) using a Caspase-3 Selectivity assay. [Related pubchem assays (depositor defined):AID2540, AID2599, AID434973, AID489001]; format: functional
[18] = biological target: T3, Sentrin-specific protease 7; assay: inhibition of human SENP7 cleavage activity – biochemical, luminescence, SAR follow-up (AID 504497); format: functional
[19] = alpha-synuclein stem-loop luciferase translation blockers – H4 neuroglioma cells, luminescence, confirmation (AID 1988); format: functional, cell-based
Streptococcus = assay: GAS UMAA2166 growth inhibition – luminescence, BacTiterGlo, counter-screen for streptokinase expression inhibitor project, dose response (AID 1915); format: functional, organism-based;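 note: potency for reduction of bacterial viability or growth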
[20] = Luminescence Cell-Based Dose Response HTS to Identify Inhibitors of 5'UTR Stem-Loop Driven Prion Protein mRNA Translation in H4 Neuroglioblastoma Cells. [Related pubchem assays: 1827 (Project Summary), 1813 (Primary HTS)]; format: functional
[21] = biological target: T2, Sentrin-specific protease 8; assay: inhibition of human SENP8 cleavage activity – biochemical, luminescence, SAR follow-up (AID 504501); format: functional
HEK293 [22] = assay: EBV LMP1 TES2 canonical NF-kB signalling blockers – cell-based, HEK293, luciferase, cherry-pick, dose response (AID 588343); format: functional; conditions: Homo sapiens

Compound: COc1ccc(-c2coc3cc4oc(=O)c5ccccc5c4cc23)cc1F
- EC50 (BJ [1]): 0.669 µM (inconclusive)
- EC50 (BJ [2]): 109 µM (inconclusive)
- EC50 (BJ [3]): 0.618 µM (inconclusive)
- EC50 (BJ [4]): 0.66 µM (inconclusive)
- EC50 [5]: 0.923 µM (active)

Compound: Cn1cc(/C=C/C(=O)c2ccccc2)c2ccccc21
- IC50 (Caspase-3 [6]): 17.7 µM (active)
- IC50 [7]: 64.9 µM (active)
- IC50 [8]: 3.24 µM (active)
- IC50 [9]: 7.58 µM (active)

Compound: COCCN=C(S)N(C)C1(c2ccccc2Cl)CCCCC1=O (stereo not given)
- IC50 (HEK293 [10]): > 89.2 µM (inactive)
- EC50 (Insulin-degrading enzyme [11]): > 54.7 µM (inactive)
- EC50 (HEK293 [12]): > 55.9 µM (inactive)
- EC50 (Insulin-degrading enzyme [13]): > 54.7 µM (inactive)

Compound: Cc1ccnc(Nc2nc(-c3ccc(F)cc3)cs2)c1
- IC50 (Caspase-3 [6]): 44.4 µM (active)
- IC50 [7]: 9.93 µM (active)
- IC50 [8]: 6.9 µM (active)
- IC50 [9]: 38.4 µM (active)

Compound: COc1c(C(=O)Nc2ccc3[nH]c(O)nc3c2)cc2ccccc2c1Br
- IC50 (HEK293 [10]): 34.5 µM (inactive)
- EC50 (Insulin-degrading enzyme [11]): > 54.7 µM (inactive)
- EC50 (HEK293 [12]): > 54.7 µM (inactive)
- EC50 (Insulin-degrading enzyme [13]): > 54.7 µM (inactive)

Compound: O=[N+]([O-])c1ccc(O)c(/C=N/Nc2ncnc3c2cnn3-c2ccccc2)c1
- IC50 (Caspase-3 [6]): > 100 µM (inactive)
- IC50 [14]: 1.54 µM (active)
- EC50 [15]: 11.4 µM (active)
- IC50 (Nonstructural protein 1): > 100 µM (active)
- EC50 [16]: 1.02 µM (active)
- IC50 (Caspase-3 [17]): 4.42 µM (active)
- IC50 [18]: 1.4 µM (active)
- IC50 [7]: 2.44 µM (active)
- EC50 [19]: 5.1 µM (inconclusive)
- EC50 (Streptococcus): 1.01 µM (active)
- IC50 [8]: 1.94 µM (active)
- EC50 [20]: 23.6 µM (active)
- IC50 [21]: 1.49 µM (active)
- IC50 [9]: 11.3 µM (active)
- AC50 (HEK293 [22]): 18.5 µM (active)

Compound: CCOc1cc(C(=S)N2CCCC2)ccc1OCc1ccccc1F
- IC50 [14]: > 99 µM (inactive)
- IC50 (Caspase-3 [17]): > 99 µM (inactive)
- IC50 [18]: > 99 µM (inactive)
- IC50 [21]: > 99 µM (inactive)
